US20260274836A1, “NOVEL HEPATOSELECTIVE POLYADENYLATING POLYMERASES INHIBITORS AND THEIR METHOD OF USE” (Baruch S. Blumberg Institute, priority 2022, published 2026)
Several values for one entry are separate records, joined by “and”; a condition that tells them apart may be missing. Identical values can stand only once.

Assays:
[1] = Pharmacokinetics after intravenous (IV) administration, plasma; format: in vivo, CD1 mice; design: AUClast/D: unit not given here; conditions: 3 mg/kg IV; for Concentration (ng/mL): plasma
Description: (§1) Protocol for pharmacokinetic and tissue distribution studies. The pharmacokinetics of the compounds was studied in CD1 mice after intravenous (IV) and oral gavage (PO) administration. Mouse PK studies was conducted at 3 mg/kg (IV) and 8 mg/kg (PO). Plasma samples obtained from dosed animals, at ten time points, including 5, 15 and 30 minutes and 1, 1.5, 2, 4, 6, 8 and 24 hr post-dose for processing to plasma, were prepared for analysis by means of a single step protein precipitation technique, by adding 200 μL of acetonitrile containing an IS mixture (labetalol, imipramine and diclofenac) to 50 μL aliquots of individual subject samples. Samples were mixed by vortex for homogeneity and then subjected to centrifugation at 4000 rpm for 10 min. The supernatant (200 μL) was collected and injected into the LC-MS/MS for analysis. Pharmacokinetic parameters will be calculated using established non-compartmental methods. The liver distribution of the compounds was studied in the PO group and liver tissues were collected at each time point after PO administration. Accurately weighed whole liver tissues were collected in a 50 mL tube, and 3 volumes per weight of water will be added. Tissue samples were homogenized and 50 μL of the homogenates will be processed along with plasma samples as described above.

[2] = Pharmacokinetics after oral gavage (PO) administration, plasma; format: in vivo, CD1 mice; design: AUClast/D: unit not given here; conditions: 8 mg/kg oral; for Concentration (ng/mL), plasma: individual animals
Description: as §1

[3] = target: T1, OATP1B3 (Homo sapiens, UniProt Q9NPD5); test: OATP1B3 transporter substrate uptake in OATP1B3-HEK293 cells; format: in vitro ADME
T1 construct: expressed in transfected cells; host or cells: HEK293
T1 sequence (Q9NPD5 1-702): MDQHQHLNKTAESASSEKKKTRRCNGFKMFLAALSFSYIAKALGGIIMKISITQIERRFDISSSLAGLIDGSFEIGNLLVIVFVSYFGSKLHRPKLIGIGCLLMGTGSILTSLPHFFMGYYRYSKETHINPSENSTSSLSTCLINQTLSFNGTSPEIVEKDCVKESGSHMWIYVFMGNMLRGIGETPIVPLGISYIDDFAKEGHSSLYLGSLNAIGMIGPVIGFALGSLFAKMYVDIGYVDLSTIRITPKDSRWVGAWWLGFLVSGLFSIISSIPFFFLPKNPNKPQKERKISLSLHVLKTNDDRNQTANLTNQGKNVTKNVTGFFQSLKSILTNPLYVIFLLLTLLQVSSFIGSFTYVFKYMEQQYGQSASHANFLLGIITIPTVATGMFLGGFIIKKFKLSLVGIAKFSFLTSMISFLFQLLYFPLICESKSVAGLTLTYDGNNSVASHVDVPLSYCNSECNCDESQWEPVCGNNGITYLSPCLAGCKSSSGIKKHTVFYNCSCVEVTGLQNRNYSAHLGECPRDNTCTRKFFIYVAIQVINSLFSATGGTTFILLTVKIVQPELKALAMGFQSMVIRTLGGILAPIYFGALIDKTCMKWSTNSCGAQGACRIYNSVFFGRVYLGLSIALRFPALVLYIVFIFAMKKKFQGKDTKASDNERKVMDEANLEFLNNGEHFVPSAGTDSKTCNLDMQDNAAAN
Description: Protocol for identification of compounds that are substrates of transporters OATPIBI and OATPIB3. Transfected HEK293 and vector control HEK293 cells were cultured in 24-well poly-D-lysine or collagen-coated tissue culture plates ([…]) for 2 and 10 minutes respectively in transport buffer (HBSSg, pH 7.4, pre-warmed to 37° C.). At a defined time point, the uptake experiments were stopped by removing dosing solution followed by two washes of ice-cold HBSSg buffer. The cells were lysed for 2 minutes with 75% ACN containing an appropriate internal standard (when available). Lysis buffer were chilled to −20° C., and the plate was kept on ice during lysis. The cell lysate was transferred into a 96-well plate for sample analysis with LC-MS/MS analysis to determine concentration of test compound in cell lysate. The uptake of test compounds was normalized by total cell protein using the BCA Protein Assay Kit following the manufacturer's protocol. The inhibitor Rifamycin SV was used to block OATP1B1 and OATP1B3 transporter activity in order to determine uptake ratios.

COc1cc2c(cc1OCCCCCCC(=O)O)C[C@@H](C(C)C)n1cc(C(=O)O)c(=O)cc1-2 [Example 6, (S)-9-((6-carboxyhexyl)oxy)-6-isopropyl-10-methoxy-2-oxo-6,7-dihydro-2H-pyrido[2,1-a]isoquinoline-3-carboxylic acid]
AUC—% Extrap —obs ([1]; individual mice): 1.59% and 1.03% and 0.662% | Cl_obs ([1]; individual mice): 187 mL/min/kg and 166 mL/min/kg and 242 mL/min/kg | AUClast/D ([1]; mean): 85.1 | AUC—% Extrap —obs ([1]; mean): 1.09% | C0 ([1]; mean): 2568 ng/mL | Cl_obs ([1]; mean): 198 mL/min/kg | Concentration (ng/mL) ([1]; 4 h, individual mice): BLOQ | Concentration (ng/mL) ([1]; 8 h, individual mice): BLOQ | Concentration (ng/mL) ([1]; 24 h, individual mice): BLOQ | AUClast/D ([2]; mean): 4.33 | F ([2]; mean): 5.09% | Concentration (ng/mL), plasma ([2]; 8 h): BLOQ | Concentration (ng/mL), plasma ([2]; 24 h): BLOQ | Uptake Ratio (−/+Inhibitor) ([3]; OATP1B3-HEK293 cells, test concentration 1 μM, inhibitor Rifamycin SV): 11.57 | Uptake Ratio (Transporter(−Inhibitor)/Mock(−Inhibitor)) ([3]; OATP1B3-HEK293 vs mock HEK293, test concentration 1 μM): 24.80
